We go through 14 molecules from patent publication US8357692B2, “Methods of treatment of bone degenerative diseases” (Washington University, priority 2010, dated 2013).

In one series the test system is serum CTx. Kind of series: Serum CTx ELISA in ovariectomized mice. It counts as in vivo. As to conditions: ovx mice treated daily, two weeks, relative to sham operated mice. For orientation: ELISA stands for enzyme-linked immunosorbent assay.
For series [1], the system named is CD4+ T-cells producing IL-17 (Th17 cells). Kind of series: Flow cytometry of spleen cells for CD4+ T-cells producing IL-17. It counts as in vivo. As to conditions: ovx mice treated daily for two weeks. Background: In flow cytometry, cells or beads pass a laser one at a time.
The conditions of series [2]: healthy male volunteers, cited from earlier work.
Series [3] relates to IL-17 production and TH17 cell differentiation. The following applies: cited from earlier work.
For another series, the system named is fibrosis accumulation. As to conditions: rat urethral stricture, cirrhosis, pulmonary fibrosis models; cited from earlier work.
A further series can be described thus: Body composition by MRI. As to conditions: 12 weeks of treatment, versus PBS. It counts as in vivo, mice. As to the method: MRI: Measurements of body composition were performed using the magnetic resonance imaging facility located at the Animal Model Research Core at Washington University (CNRU grant NIB P30 DK56341).
IL-17A inhibits adipocyte differentiation from human mesenchymal stem cells (Shin et al., Biochem. Pharmacol., 77(12), 1835-1844, 2009). IL17R−/− mice are heavier and have higher leptin levels, which is a marker of adopocyte mass (Galic et al., Mol. Cell Endocrinol., 316(2), 129-139, 2010; Goswami et al., Eur J Immunol, 39(10), 2831-2839, 2009). Leptin can stimulate IL-17 production (Liu et al., Br. J. Ophthalmol., 92(4), 557-561, 2008), and blood IL-17 levels are increased in obese women (Sumarac-Dumanovic et al., Int. J. Obes. (Lond), 33(1), 151-156, 2009). […] Eight week old mice (n=6 mice per group) were treated with Halofuginone or PBS for 12 weeks, after which body content was measured using MRI.

Series [4] concerns ovariectomy-induced bone loss. Briefly: Ovariectomy-induced bone loss in mice, micro-CT of distal femora. In kind it is in vivo.
The next series deals with collagen α1(I). As to conditions: cited from earlier work.
For a further series, the system named is bone formation. Kind of series: Bone formation assay (calcein double labeling). In kind it is in vivo. The following applies: mice treated daily for 14 days, versus PBS control. As to the method: Bone formation assay (calcein double labeling): Mice were injected with 7.5 mg/kg calcein (Sigma-Aldrich; St. Louis, Mo.). Five days later mice were injected again, and tibias were harvested after an additional 2 days for histologic analysis. Dynamic assessment of trabecular bone formation was determined on non-decalcified sections using BioQuant software (Bioquant; Nashville, Tenn.). This software provided measures of bone surface, percent single-(sLS/BS) and double-labeled (dLS/BS) bone surface, mineralizing surface (MS/BS), mineral apposition rate (MAR), and bone formation rate (BFR/BS). Trabecular bone measurements were taken from a region encompassing a 500 μm-long field, across the width of the bone (located 100 μm below the growth plate). For each animal, 2 serial sections were analyzed and the measurements averaged. Pictures were obtained using an Olympus 1×51 fluorescent microscope fitted with Olympus DP70 camera (Olympus; Center Valley, Pa.).
Since Halofuginone inhibits type I collagen synthesis by fibroblasts and other cells, bone formation rates were tested to determine whether the rates are reduced in mice treated with the chemical. Mice were treated daily with HL or vehicle control for 14 days, while Calcein was injected on day 7 and 12, and Mineral Apposition Rates (MAR) and Bone Formation Rates (BFR) were determined.

The subject of a further series is FM3A mouse mammary cells. As to conditions: cited from earlier work.
The next series deals with P. falciparum FCR-3. The following applies: cited from earlier work; for antimalarial activity and selectivity in words: against P. falciparum in vitro.
The next series relates to osteoblasts. Kind of series: BrdU incorporation in osteoblasts. It counts as cell-based, mice. As to conditions: 10 ng/ml, 24 hours, IL-17 receptor WT and KO osteoblasts. Here is the method:
To test the function of IL-17 signaling in the osteoblast, the inventors first determined the IL-17 receptor is expressed in osteoblasts, and its expression is unaffected by TNFα or IL-17 stimulation. Primary osteoblasts were stimulated with vehicle control, IL-17 (10 ng/ml), TNF (5 ng/ml), or a combination of the two for 24 hours, and RT-PCR for the IL-17 receptor and actin was performed (FIG. 6). Next the inventors cultured BMMs in combination with primary osteoblasts, Vitamin D, and varying IL-17 concentrations. Osteoblasts were lifted, then osteoclasts were fixed and TRAP stained. […] Primary osteoblasts were stimulated with IL-17 or vehicle control for 24 hours, and RT-PCR was performed using primers for RANKL or actin. […] IL-17 receptor WT and KO osteoblasts were cultured with IL-17 (10 ng/ml) and BrdU for 24 hours, after which BrdU incorporation was measured by absorptiometry.
Background: Dividing cells build labelled thymidine or BrdU into new DNA.

Another series deals with RANKL. Briefly: RT-PCR for RANKL in primary osteoblasts. It counts as cell-based, mice. As to conditions: 24 hours. Here is the method:
RT-PCR: RNA was isolated using RNeasy kits (Qiagen); RLT lysis buffer was supplemented with β-mercaptoethanol (1%). Purified RNA was treated with DNase I (Invitrogen; Carlsbad, Calif.) prior to reverse transcription (RT). RT was performed using SuperScript III (Invitrogen). A negative control using RNA not subjected to reverse transcription was included in each assay. Quantitative PCR (qPCR) was performed using Applied Biosystems's (Foster City, Calif.) Power SYBR green master mix and gene specific primers. The qPCR reaction was run on Applied Biosystem's ABI Prism 7000. Transcript levels were normalized to cyclophilin.
To test the function of IL-17 signaling in the osteoblast, the inventors first determined the IL-17 receptor is expressed in osteoblasts, and its expression is unaffected by TNFα or IL-17 stimulation. Primary osteoblasts were stimulated with vehicle control, IL-17 (10 ng/ml), TNF (5 ng/ml), or a combination of the two for 24 hours, and RT-PCR for the IL-17 receptor and actin was performed (FIG. 6). Next the inventors cultured BMMs in combination with primary osteoblasts, Vitamin D, and varying IL-17 concentrations. Osteoblasts were lifted, then osteoclasts were fixed and TRAP stained. […] IL-17 receptor WT and KO osteoblasts were cultured with IL-17 (10 ng/ml) and BrdU for 24 hours, after which BrdU incorporation was measured by absorptiometry.

The test system of series [5] is coculture of bone marrow macrophages (BMMs) with osteoblasts. Kind of series: Osteoclast formation in coculture of bone marrow macrophages with osteoblasts. In kind it is cell-based, mice. As to conditions: BMMs with primary osteoblasts, Vitamin D, varying concentrations. Here is the method: Calvaria osteoblast isolation and culture: Whole calvaria were extracted from 3-4 day old pups and cleaned of soft and periostial tissue. Osteoblasts were liberated by 3×20 minute collagenase treatment at 37 degrees, shaking. Osteoblasts were transduced with appropriate virally expressed proteins when 50% confluent, selected with the appropriate antibiotic for 4 days, then plated for experiments. For cocultures, BMMs were cultured for 4 days prior to being lifted and then cultured with osteoblasts in α-MEM media containing pen/strep, 10% FBS and 10 nM VitD3, plus IL-17 or other cytokines where indicated.
To test whether IL-17 signaling is important in the pathogenesis of osteoporosis, the inventors mimicked the most common human form of osteoporosis, that of estrogen deficiency, by removing ovaries (ovx) in mice. […] Four weeks later, Micro-CT, a sensitive and specific measure of bone volume, was used to assess trabecular Bone Volume per Total Volume measured in the distal femora. […] Ovariectomized mice (n=5-7 mice per group) were treated with IL-17 blocking antibody or isotype control for two and four weeks and distal femora were analyzed by micro-CT.
To test the function of IL-17 signaling in the osteoblast, the inventors first determined the IL-17 receptor is expressed in osteoblasts, and its expression is unaffected by TNFα or IL-17 stimulation. […]

[6] abbreviates: Table 1, against P. falciparum FCR-3, in vitro, read-out: EC50 (M) antimalarial activity.
Where [7] appears, read: read-out: EC50 (M) cytotoxicity, Table 1, against FM3A mouse mammary cells.
[8] abbreviates: read-out: EC50 (M) cytotoxicity, Table 2, against FM3A mouse mammary cells.
[9] abbreviates: Table 2, against P. falciparum FCR-3, in vitro, read-out: EC50 (M) antimalarial activity.

Entries after “also recorded” stand apart in the source; their conditions may differ. Read-outs that look alike come from different tables or passages of the source.

With `O=C(C[C@@H]1NCCC[C@H]1O)Cn1cnc2cc(Br)c(Cl)cc2c1=O` [Halofuginone, 7-Bromo-6-chloro-3-[3-[(2S,3R)-3-hydroxy-2-piperidinyl]-2-oxopropyl]-4-quinazolinone], the “serum CTx” value in the series with serum CTx is reported as “reduces serum CTx; also recorded: blunted, non-statistically significant, increase”. In series [1], the “percentage of CD4+ T-cells producing IL-17” value is given as “reduces Th17 cells; also recorded: significantly reduced”. Moreover, the maximal tolerated dose in series [2] (daily oral dose) is 1.5 mg. Further, the tolerability entry in [2] (oral, 1.5 to 2.5 mg) is “moderately tolerated”. The “tolerability of single oral doses” value in [2] (single oral doses of 0.07 and 0.5 mg) was “safe and well tolerated”. Also, in [3] (at concentrations that inhibit IL-17 production), the TGFβ inhibition entry was “no TGFβ inhibition is seen”. Moreover, the “IL-17 production and TH17 cell differentiation” value in [3] is “inhibits IL-17 production and TH17 cell differentiation”. Further, the fibrosis accumulation result with fibrosis accumulation was “inhibit fibrosis accumulation”. Also, in “Body composition by MRI”, the percent body fat result is on record as “reduced percent body fat”, the percent lean mass entry was “small but statistically significant increase” and the total fat mass entry is given as “significantly less total fat mass”. Further, the “Connectivity Density” value in [4] (four weeks after ovariectomy, daily injection) is on record as “completely protected”. Besides, in series [4] (four weeks post-ovx), the ovariectomy-induced bone loss entry is given as “lost significantly less bone than PBS injected mice; also recorded: protects from ovariectomy-induced bone loss; also recorded: lose significantly less bone”. Moreover, the “BV/TV, BV, connectivity density, trabecular thickness, and trabecular number” value in series [4] (ovx mice, daily treatment, four weeks, relative to sham) was “but not in Halofuginone treated ovx mice relative to sham”. Further, the “Bone volume per total volume (BV/TV)” value in series [4] (ovx mice, daily treatment, two weeks) is “significantly lower in vehicle treated ovx mice compared with either sham or Halofuginone treated ovx mice”. For the same molecule, the ovariectomy-induced bone loss entry in series [4] (two weeks post-ovx) is “lost significantly less bone than PBS treated mice; also recorded: protects from ovariectomy-induced bone loss; also recorded: lose significantly less bone”. Moreover, in the series on collagen α1(I), the “Collagen type II or III” value is recorded as “not inhibited”. In addition, the “collagen α1(I) mRNA and protein levels” value in the series on collagen α1(I) (variety of cells) is “inhibits collagen α1(I) mRNA and protein levels”. Moreover, the bone formation rates entry in the series with bone formation is given as “does not affect bone formation; also recorded: equivalent bone formation rates”.

Consider `C[C@@H]1CC[C@H]2[C@@H](C)C(=O)O[C@@H]3O[C@@]4(C)CC[C@@H]1[C@]32OO4` [artemisinin], for which the EC50 – broadly, the concentration at which the effect is half-maximal – with FM3A mouse mammary cells was 1e-05 M; with P. falciparum FCR-3 (setting [6]) it was 1e-08 M.

Turning to `CCN(CC)CCCC(C)Nc1ccnc2cc(Cl)ccc12` (stereo not drawn) [chloroquine], the EC50 in the series on FM3A mouse mammary cells (setting [7]) was 3.2e-05 M; in the series on P. falciparum FCR-3 (setting [6]), 1.8e-08 M.

With `O=C(C[C@H]1NCCC[C@@H]1O)Cn1cnc2ccccc2c1=O` [compound 1, febrifugine], the EC50 in the series with FM3A mouse mammary cells (setting [7]) was 1.7e-07 M; in the series on P. falciparum FCR-3 (setting [6]), 7e-10 M.

For the molecule `O=c1c2ccccc2ncn1CC1(O)C[C@@H]2NCCC[C@@H]2O1` (stereo partly drawn) [compound 2, isofebrifugine], the EC50 with FM3A mouse mammary cells is 1.8e-07 M; in the series on P. falciparum FCR-3 (setting [6]) it was 3.4e-09 M.

For `O=C(CC1NCCCC1=O)Cn1cnc2ccccc2c1=O` (stereo not drawn) [compound 7], the figures for the EC50 with FM3A mouse mammary cells (setting [7]) and in the series with P. falciparum FCR-3 (setting [6]) were 1e-05 M and 2e-08 M, respectively. For the same molecule, the “antimalarial activity and selectivity in words” value with P. falciparum FCR-3 is “potential antimalarial activity with high selectivity”.

`O=c1c2ccccc2ncn1CC(O)C[C@H]1NCCC[C@@H]1O` (stereo partly drawn) [compound 8]: the EC50 in the series on FM3A mouse mammary cells (setting [7]) was 1.5e-05 M; with P. falciparum FCR-3 (P. falciparum in vitro, read-out: EC50, in vitro antimalarial activity), 2e-08 M. Further, the “antimalarial activity and selectivity in words” value with P. falciparum FCR-3 is “strongly active and selective”.

With `O=C(C[C@H]1NCCC[C@@H]1O)Cn1cnccc1=O` [compound 12], the EC50 in the series on FM3A mouse mammary cells (setting [7]) is more than 1.9e-05 M; with P. falciparum FCR-3 (setting [6]) it was 6e-07 M.

As for `O=c1ccncn1CC1(O)C[C@@H]2NCCC[C@@H]2O1` (stereo partly drawn) [compound 13], the EC50 in the series on FM3A mouse mammary cells was 7e-06 M; in the series with P. falciparum FCR-3 (setting [6]) it was 4e-08 M.

With `O=C(C[C@H]1NCCC[C@@H]1O)Cn1ccc2ccccc2c1=O` [compound 14], the EC50 in the series on FM3A mouse mammary cells (setting [7]) is more than 1.6e-05 M; with P. falciparum FCR-3 (setting [6]), 5e-07 M.

On to `O=c1c2ccccc2ccn1CC1(O)C[C@@H]2NCCC[C@@H]2O1` (stereo partly drawn) [compound 15], for which the EC50 is more than 6.3e-06 M in the series on FM3A mouse mammary cells and 2.1e-06 M in the series on P. falciparum FCR-3 (setting [6]).

With `CC1(C)[C@@H](N2CNc3ccccc3C2=O)C(O)=C[C@@H]2[C@@H](O)CCCN21` [compound 38], the EC50 was more than 1.6e-05 M with FM3A mouse mammary cells (setting [8]) and 4.2e-07 M in the series on P. falciparum FCR-3 (setting [9]).

Consider `CNc1ccccc1C(=O)N[C@H]1C(O)=C[C@@H]2[C@@H](O)CCCN2C1(C)C` [compound 39], for which the EC50 in the series on FM3A mouse mammary cells (setting [8]) was more than 1.7e-05 M; in the series on P. falciparum FCR-3 (setting [9]) it was 6e-07 M.

For “IL-17: interleukin-17, cytokine promoting osteoclast formation, added to cultures”, the “osteoblast proliferation (BrdU incorporation)” value in the series with osteoblasts is “does not affect osteoblast proliferation”. Moreover, in the series on RANKL, the “RANKL mRNA expression in the osteoblast” value is listed as “induced by IL-17”. Further, the osteoclast formation entry in [5] is reported as “potently induced osteoclast formation”.
